Results taken from US6579868B1, “Purine derivatives and adenosine A2 receptor antagonists serving as preventives/remedies for diabetes” (Eisai Co., Ltd., priority 1998, dated 2003).
Counter-ions that a name gives are not always drawn.

Legend:
[1] = test system: spontaneous diabetic mice (KK-A^y/Ta Jcl); assay: Action to hyperglycemia of spontaneous diabetic mice (KK-A^y/Ta Jcl), single oral administration; type: in vivo, mouse; details: 5 h
Description: Animals: Five male KK-A^y/Ta Jcl mice for each group (purchased from Nippon Clair)
Preparation and Administration of Test Compound: A test compound in a dose as shown in Table 2 was suspended in a 0.5% aqueous solution of methyl cellulose and was orally administered in a dose of 10 ml/kg.
Collection of Blood Samples and Determination of Blood Sugar: Blood was collected from tail vein immediately before administration of the test compound and also five hours after the administration and blood sugar was determined.
(§1) Method: Tail vein of a mouse was injured by a razor without an anesthetization to bleed slightly. The blood (15 μl) was collected and immediately mixed with 135 μl of a 0.6 M perchloric acid. Glucose in the supernatant obtained by a centrifugal separation (at 1500 g for 10 minutes at 4° C. using a cooling centrifuge GS-6KR of Beckmann) was determined by a Glucose CII Test Wako (Wako Pure Chemicals).
The result is shown in terms of “(% ratio of the blood sugar after 5 hours from the administration to the blood sugar before the administration)±(standard error)”. The data were subjected to a one-way layout analysis of variance and then subjected to a multiple comparison of a Dunnett type. The case where p<0.05 was judged to be that a significant difference was available.
Animals: Five male KK-A^y/Ta Jcl mice for each group (introduced from Nippon Clair)
Preparation and Administration of Test Compound: A test compound in a dose shown in Table 6 was suspended in a 0.5% aqueous solution of methyl cellulose and was orally administered in a dose of 10 ml/kg.
as §1, with “vein of mouse was” for “vein of a mouse was”
The result is shown in terms of “(% ratio of the blood sugar after 5 hours from the administration to the blood sugar before the administration)±(standard error)”. The data were subjected to a one-way layout analysis of variance and then subjected to a multiple comparison of Dunnett type. The case where p<0.05 was judged that a significant difference was available.

[2] = biological target: T1, Human adenosine A1 receptor (Homo sapiens, UniProt P30542); assay: Adenosine A1 receptor binding experiment (3H-CCPA); details: human A1 receptor expressed in CHOK1 membranes
T1 construct: expressed in transfected cells; host or cells: CHOK1 cells (membrane specimen)
T1 sequence (P30542 1-326): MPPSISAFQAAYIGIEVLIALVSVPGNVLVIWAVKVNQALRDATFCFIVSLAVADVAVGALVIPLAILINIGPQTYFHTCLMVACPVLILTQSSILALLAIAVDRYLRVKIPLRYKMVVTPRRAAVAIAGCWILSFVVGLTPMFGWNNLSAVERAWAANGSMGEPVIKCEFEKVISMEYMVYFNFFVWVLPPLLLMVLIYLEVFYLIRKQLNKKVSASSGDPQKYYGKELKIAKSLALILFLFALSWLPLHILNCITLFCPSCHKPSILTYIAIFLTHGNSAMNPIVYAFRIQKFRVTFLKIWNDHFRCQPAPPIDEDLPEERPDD
Description: Human adenosine A1 receptor cDNA was subjected to an over-expression in CHOK1 cells and its membrane specimen was suspended in an incubation buffer (20 mM HEPES, 10 mM MgCl2 and 100 mM NaCl; pH 7.4) to make the concentration 66.7 μg/ml. To 0.45 ml of this membrane specimen were added 0.025 ml of tritium-labeled chlorocyclopentyl adenosine (60 nM ^3H-CCPA; 30 Ci/mmol) and 0.025 ml of the compound to be tested. The solution of the compound to be tested was prepared in such a manner that, firstly, the compound was dissolved in DMSO to make 20 mM concentration and then successively diluted each 10-fold using an incubation buffer. The mixture was allowed to stand at 30° C. for 120 minutes, subjected to a quick suction on a glass fiber filter (GF/B; manufactured by Whatman) and immediately washed with 5 ml of ice-cooled 50mM Tris-HCl buffer twice. After that, the glass fiber filter was transferred to a vial bottle, a scintillator was added and the radioactivity on the filter was measured by a liquid scintillation counter. Calculation of the inhibition rate of the test compound to the receptor bond (^3H-CCPA) was carried out by the following expression and, based upon that, IC50 was calculated.
Inhibition Rate (%)=[1−{(Binding amount in the presence of drug-Non-specific binding amount)/(Total binding amount-Non-specific binding amount)}]×100
Total binding amount is a ^3H-CCPA binding radioactivity in the absence of the test compound.
Non-specific binding amount is a ^3H-CCPA binding radioactivity in the presence of 100 μM of RPIA.
Binding amount in the presence of drug is a ^3H-CCPA binding radioactivity in the presence of the test compound of various concentrations.
The inhibition constant (Ki value) in Table was calculated from Cheng-Prusoff's expression.

[3] = test system: Hepatic cells of primary culture of rats; assay: Suppressing action to NECA-stimulated saccharogenesis (glucose release) in primary cultured rat hepatic cells; type: cell-based; details: 0.1 μM NECA, 1 h incubation, glucose released into medium
Description: Hepatic cells were separated by a collagenase perfusion method from liver of male rats of Wistar strain and subjected to a primary culture in a William's Medium E containing 5% of calf serum, 10^−6 M of insulin, 10^−7 M of dexamethasone and 30 ng/ml of pertussal toxin. After one day, the hepatic cells were washed with a Krebs-Ringer Bicarbonate buffer (pH 7.4 (KRB)) containing 10 mM of HEPES and 0.1% of bovine serum albumin and incubated with KRB at 37° C. After 30 minutes, 0.1 μM of NECA (N-ethylcarboxamide adenosine) and a test compound were added thereto at the same time, the mixture was incubated for additional one hour and the amount of glucose released into an incubation medium was measured.

| SMILES | IC50 [3] [nM] | melting point [°C] | also measured |
| --- | --- | --- | --- |
| Cl.Cn1c(-c2cccc(F)c2)nc2c(N)nc(C#CC(C)(C)O)nc21 [Example 64, 4-[6-Amino-8-(3-fluorophenyl)-9-methyl-9H-2-purinyl]-2-methyl-3-butyn-2-ol Hydrochloride] |  |  | % ratio of the blood sugar after 5 hours from the administration to the blood sugar before the administration ± standard error ([1]; Table 2-2, 10 mg/kg oral, solvent group 67.6 ± 2.4): 42.3 ± 4.8% |
| CCn1c(=O)c2c(nc(/C=C/c3ccc(OC)c(OC)c3)n2C)n(CC)c1=O |  |  | Ki [2]: > 10 µM |
| CCn1c(-c2cccc(F)c2)nc2c(N)nc(C#CC3(O)CCCC3)nc21.Cl [Example 133, 1-{2-[6-Amino-9-ethyl-8-(3-fluorophenyl)-9H-2-purinyl]-1-ethynyl}-1-cyclopentanol Hydrochloride] | 200 | 188 to 191 |  |
| Cn1c(-c2cccc(F)c2)nc2c(N)nc(C#CC3(O)CCCC3)nc21 [drawing 260] |  |  | Ki [2]: 0.019 µM |
| Cn1c(-c2cccc(F)c2)nc2c(N)nc(C#CC(C)(C)O)nc21 [Example 64 (sulfate), Hydrochloride] | 730 |  |  |
| Cl.Cn1c(-c2cccc(F)c2)nc2c(N)nc(C#CC3(O)CCC3)nc21 [Example 89, 1-{2-[6-Amino-8-(3-fluorophenyl)-9-methyl-9H-2-purinyl]-1-ethynyl}-1-cyclobutanol Hydrochloride] | 430 | 198 to 199 | % ratio of the blood sugar after 5 hours from the administration to the blood sugar before the administration ± standard error ([1]; Table 2-2, 30 mg/kg oral, solvent group 67.6 ± 2.4): 38.3 ± 4.4% |
| CCCn1c(=O)c2c(nc(/C=C/c3ccc(OC)c(OC)c3)n2C)n(CCC)c1=O [drawing 263] |  |  | Ki [2]: > 10 µM |
| CCCn1c(-c2cccc(F)c2)nc2c(N)nc(C#CC3(O)CCCC3)nc21.Cl [Example 169, 1-{2-[6-Amino-8-(3-fluorophenyl)-9-propyl-9H-2-purinyl]-1-ethynyl}-1-cyclopentanol Hydrochloride] | 480 | 198 to 200 |  |
| Cl.Cn1c(-c2cccc(F)c2)nc2c(N)nc(/C=C/C3(O)CCC3)nc21 [Example 215, 1-[(E)-[6-Amino-8-(3-fluorophenyl)-9-methyl-9H-2-purinyl]-1-ethenyl]-1-cyclobutanol Hydrochloride] | 220 | 181 to 184 |  |
| CCn1c(-c2cccc(F)c2)nc2c(N)nc(C#CC3(O)CCC3)nc21.Cl [Example 8, 1-{2-[6-Amino-9-ethyl-8-(3-fluorophenyl)-9H-2-purinyl]-1-ethynyl}-1-cyclobutanol Hydrochloride] | 490 | 160 to 163 | % ratio of the blood sugar after 5 hours from the administration to the blood sugar before the administration ± standard error ([1]; Table 2-1, 10 mg/kg oral, solvent group 72.4 ± 4.4): 47.8 ± 4.8% |
| Cn1c(-c2cccc(F)c2)nc2c(N)nc(C#CC3(O)CCCCC3)nc21 [Example 31, 1-{2-[6-Amino-8-(3-fluorophenyl)-9-methyl-9H-2-purinyl]1-ethynyl}-1-cyclohexanol Hydrochloride] | 130 |  |  |
| CN(C)c1ccc(-n2c(-c3cccc(F)c3)nc3c(N)nc(C#CC4(O)CCCCC4)nc32)cc1 [Example 3, 1-{2-[6-Amino-9-[4-(dimetylamino)phenyl]-8-(3-fluorophenyl)-9H-2-purinyl]-1-ethynyl}-1-cyclohexanol Dihydrochloride] | 130 |  |  |
| CCCn1c(-c2cccc(F)c2)nc2c(N)nc(C#CC3(O)CCC3)nc21.Cl [Example 170, 1-{2-[6-Amino-8-(3-fluorophenyl)-9-propyl-9H-2-purinyl]-1-ethynyl}-1-cyclobutanol Hydrochloride] | 500 | 144 to 146 |  |
| Cl.Cn1c(-c2cccc(F)c2)nc2c(N)nc(/C=C/C3(O)CCCC3)nc21 [Example 208, 1-[(E)-2-[6-Amino-8-(3-fluorophenyl)-9-methyl-9H-2-purinyl]-1-ethenyl]-1-cyclopentanol Hydrochloride] | 270 | > 290 |  |
| CCn1c(-c2cccc(F)c2)nc2c(N)nc(/C=C/C(C)(C)O)nc21.Cl [Example 210, (E)-4-[6-Amino-9-ethyl-8-(3-fluorophenyl)-9H-2-purinyl]-2-methyl-3-buten-2-ol Hydrochloride] | 520 |  | % ratio of the blood sugar after 5 hours from the administration to the blood sugar before the administration ± standard error ([1]; Table 2-3, 10 mg/kg oral, solvent group 70.7 ± 4.6): 51.5 ± 4.6% |
| CCCn1c(-c2cccc(F)c2)nc2c(N)nc(C#CC(C)(C)O)nc21.Cl [Example 171, 4-[6-Amino-8-(3-fluorophenyl)-9-propyl-9H-2-purinyl]-2-methyl-3-butyn-2-ol Hydrochloride] | 1010 | 167 to 168 |  |
| Cn1c(-c2cccc(F)c2)nc2c(N)nc(C#CC3(O)CCCC3)nc21 [Example 19, 1-{2-[6-Amino-8-(3-fluorophenyl)-9-methyl-9H-2-purinyl]-1-ethynyl}-1-cyclopentanol Sulfate] | 470 |  |  |
| CCn1c(-c2cccc(F)c2)nc2c(N)nc(CCC(O)(CC)CC)nc21 [Example 235, 1-[6-Amino-9-ethyl-8-(3-fluorophenyl)-9-2-purinyl]-3-ethyl]-3-pentanol Hydrochloride] | 1270 |  |  |
